Results: the supplement of paper PMC10307832

Legend:
Assay in all cases: relative viability (nuclei count vs DMSO), 5 days (fraction); higher = more cells survive
[1] = system: NCI-H441
Method in brief: (§1)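 Relative viability divides the nuclei count in treated wells by that in vehicle wells. Lung cancer cell lines were seeded in 1536-well plates, dosed by pin tool the next day, and fixed and stained after 5 days in one step with final 0.05% Triton X-100, 1% formaldehyde and 1 ug/ml Hoechst. Dosing was a single drug or a fixed anchor-drug dose plus five library-drug doses (not always all listed) in √10 steps, and values are medians of duplicate plates imaged at 4×.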

[2] = system: NCI-H838
Method in brief: as §1

[3] = system: NCI-H2228
Method in brief: as §1

[4] = system: NCI-H1666
Method in brief: as §1

[5] = system: NCI-H520
Method in brief: as §1

[6] = system: NCI-H1755
Method in brief: as §1

[7] = system: NCI-H596
Method in brief: as §1

[8] = system: LK-2
Method in brief: as §1

[9] = system: NCI-H2085
Method in brief: as §1

[10] = system: A-427
Method in brief: as §1

[11] = system: NCI-H358
Method in brief: as §1

[12] = system: NCI-H1650
Method in brief: as §1

## O=C(O)CCCCC(CCSCc1ccccc1)SCc1ccccc1 (stereo unspecified) [CPI-613] + Cc1cc(Nc2cc(N3CCN(C)CC3)nc(Sc3ccc(NC(=O)C4CC4)cc3)n2)n[nH]1 [Tozasertib] (partner 0.1 µM)
[1]; first compound 5 µM
  relative viability: 0.704
[1]; first compound 15.81 µM
  relative viability: 0.633
[1]; first compound 50 µM
  relative viability: 0.649
[1]; first compound 158.11 µM
  relative viability: 0.247
[1]; first compound 500 µM
  relative viability: 0.0826
[2]; first compound 5 µM
  relative viability: 0.271
[2]; first compound 15.81 µM
  relative viability: 0.252
[2]; first compound 50 µM
  relative viability: 0.249
[2]; first compound 158.11 µM
  relative viability: 0.194
[2]; first compound 500 µM
  relative viability: 0.104
[3]; first compound 5 µM
  relative viability: 0.304
[3]; first compound 15.81 µM
  relative viability: 0.204
[3]; first compound 50 µM
  relative viability: 0.236
[3]; first compound 158.11 µM
  relative viability: 0.146
[3]; first compound 500 µM
  relative viability: 0.112
[4]; first compound 5 µM
  relative viability: 0.558
[4]; first compound 15.81 µM
  relative viability: 0.634
[4]; first compound 50 µM
  relative viability: 0.614
[4]; first compound 158.11 µM
  relative viability: 0.233
[4]; first compound 500 µM
  relative viability: 0.155
[5]; first compound 5 µM
  relative viability: 0.42
[5]; first compound 15.81 µM
  relative viability: 0.378
[5]; first compound 50 µM
  relative viability: 0.352
[5]; first compound 158.11 µM
  relative viability: 0.48
[5]; first compound 500 µM
  relative viability: 0.375
[6]; first compound 5 µM
  relative viability: 0.558
[6]; first compound 15.81 µM
  relative viability: 0.52
[6]; first compound 50 µM
  relative viability: 0.581
[6]; first compound 158.11 µM
  relative viability: 0.402
[6]; first compound 500 µM
  relative viability: 0.356
[7]; first compound 5 µM
  relative viability: 1.08
[7]; first compound 15.81 µM
  relative viability: 0.923
[7]; first compound 50 µM
  relative viability: 0.966
[7]; first compound 158.11 µM
  relative viability: 0.595
[7]; first compound 500 µM
  relative viability: 0.0638
[8]; first compound 5 µM
  relative viability: 0.173
[8]; first compound 15.81 µM
  relative viability: 0.162
[8]; first compound 50 µM
  relative viability: 0.189
[8]; first compound 158.11 µM
  relative viability: 0.181
[8]; first compound 500 µM
  relative viability: 0.139
[9]; first compound 5 µM
  relative viability: 0.769
[9]; first compound 15.81 µM
  relative viability: 0.683
[9]; first compound 50 µM
  relative viability: 0.734
[9]; first compound 158.11 µM
  relative viability: 0.386
[9]; first compound 500 µM
  relative viability: 0.105
[10]; first compound 5 µM
  relative viability: 0.204
[10]; first compound 15.81 µM
  relative viability: 0.193
[10]; first compound 50 µM
  relative viability: 0.203
[10]; first compound 158.11 µM
  relative viability: 0.124
[10]; first compound 500 µM
  relative viability: 0.0991
[11]; first compound 15.81 µM
  relative viability: 0.113
[11]; first compound 50 µM
  relative viability: 0.0981
[11]; first compound 158.11 µM
  relative viability: 0.0576
[11]; first compound 500 µM
  relative viability: 0.0347
[12]; first compound 5 µM
  relative viability: 0.441
[12]; first compound 15.81 µM
  relative viability: 0.321
